Reference: US20230218542A1, “MEDICAMENT FOR TREATING HYPERTENSION” (priority 2022, published 2023)

Test system: L-NAME-induced hypertensive rats
Experiment: Therapeutic effect on L-NAME-induced hypertensive rats (Effect Verification 1), tail artery pressure
Type: in vivo, SD rats
Settings: for antihypertensive effect (overall finding): SBP and DBP, three weeks of administration; for comparison of SBP with that in the group M: after the end of the administration (third week)
Experimental: The tail artery pressure, including systolic blood pressure (SBP) and diastolic blood pressure (DBP), was measured in rats in the resting state at the same time using an ALC-NIBP noninvasive blood pressure measuring instrument. One hundred and fifty-two 6-week-old male SD rats were taken and subjected to adaptive feeding for one week at room temperature of 18-26° C. with the relative humidity of 40%-70% and illumination by artificial lighting from 9:00 to 21:00 every day. After one week, blood pressure in all of them was measured, the results were charted using Excel 2010, and the experimental data were analyzed using SPSS 20.0, where P < 0.05 indicated statistical significance and the measurement data were expressed as x̅ ± s. […] According to the commonly used grading criteria for hypertension, SBP 140 mmHg is the critical value of hypertension, and every 20 mmHg is one grade. Every 10 mmHg of DBP is one grade. Therefore, SBP > 140 mmHg is set as mild hypertension and SBP > 160 mmHg is set as moderate hypertension; optionally, DBP increased by more than 10 mmHg is mild hypertension and DBP increased by more than 20 mmHg is moderate hypertension.
Rats with the blood pressure in the normal range measured in the step 1 above and the weight of 200 ± 20 g were randomly taken and grouped into 7 groups: a control group (K) containing 8 rats, a model control group (M), a ligustrazine administration group (TMP, 60 mg/kg), a cannabidiol administration group (CBD, 60 mg/kg), and combined administration groups of TMP and CBD (divided into three groups in different ratios of 2:1 (XA), 1:1 (XB) and 1:2 (XC), TMP = 60 mg/kg, and CBD was 30 mg/kg, 60 mg/kg and 120 mg/kg, respectively). 10 rats were contained in each remaining group. Except for group K, 12 mg/kg L-NAME was administered intragastrically to the rest at 9:00 every day to manufacture a hypertension model, and distilled water was administered in an equal amount to K group. By the fourth week, blood pressure was measured in each group, and after individuals with SBP < 140 mmHg were excluded from the model, each group was administered for three weeks, and drug vehicles were administered in an equal amount to groups K and M. Blood pressure was measured once a week during the administration period. (The animal model was fasted for two hours before the administration, and the medicament was bathed to room temperature. TMP solution at 1 mL/100 g was firstly administered intragastrically to the combined administration groups of TMP and CBD, and after 1 h interval, CBD solution at the corresponding half volume was then administered intragastrically.)
One-way ANOVA analysis (Duncan) was used for pairwise comparisons among groups, and paired-sample t-test was used for before-and-after comparisons within groups. The change trend of SBP of rats in each group is shown in FIG. 2 and the change trend of DBP of rats in each group is shown in FIG. 3, and the abscissa “0” represents the fourth week of molding, i.e., the beginning of the administration period.

[1] = one week of intragastric administration
[2] = three weeks of intragastric administration
[3] = two weeks of intragastric administration

Row | Compound | antihypertensive effect (overall finding) | comparison of SBP with that in the group M | Effect = (SBP in model group - SBP in administration group)/(SBP in model group - SBP in control group) [1] | Effect = (SBP in model group - SBP in administration group)/(SBP in model group - SBP in control group) [2] | Effect = (SBP in model group - SBP in administration group)/(SBP in model group - SBP in control group) [3] | decrease of SBP (after the end of the administration)
1 | ligustrazine phosphate [TMP] | no significant antihypertensive effect | no significant difference | 0.0716 | 0.1722 | 0.0780 | –
2 | C=C(C)[C@@H]1CCC(C)=C[C@H]1c1c(O)cc(CCCCC)cc1O [CBD, cannabidiol] | significant antihypertensive effect | significant difference | 0.3222 | 0.3418 | 0.3628 | more than 10 mmHg
